Results taken from patent US20260199363A1, “METHOD OF TREATING CANCER IN A PATIENT WITH HEPATIC DYSFUNCTION” (priority 2023, published 2026).
Where two headings read alike, the source gives them in different places.

What was measured:
[1] = Study PKH-95032-008: Phase 1, open-label, single-dose pharmacokinetics, safety and tolerability in moderate hepatic impairment vs matched normal hepatic function; assay type: in vivo, human; settings: for Tmax: median (minimum, maximum); for Cmax, u: unbound; for half-life / fraction unbound: arithmetic mean±StD; for fraction unbound: read-out: Fu, ave; for AUC0-t, Ratio (%) of Geometric Means (Test/Reference) / Cmax, Ratio (%) of Geometric Means (Test/Reference): moderate hepatic impairment (Test) / normal hepatic function
[2] = in vivo
[3] = Study AG881-C-004 (INDIGO): hepatic enzyme elevation adverse events and dose modifications; assay type: in vivo, human; settings: for TEAEs leading to death, number of subjects / Treatment-related TEAEs leading to death, number of subjects: 40 mg QD, hepatic enzymes elevation SMQ
Description: For Study AG881-C-004, the inclusion criteria specified that subjects with adequate hepatic (serum total bilirubin ≤1.5× upper limit of normal (ULN); and aspartate aminotransferase [AST] or alanine aminotransferase [ALT] at or below ULN; and AP≤2.5×ULN) were eligible for enrollment.
In the INDIGO clinical trial (Study AG881-C-004), 18.6% (31/167) of patients treated with Vorasidenib experienced ALT elevations ≥3 times the ULN and 8.4% (14/167) experienced AST elevations >3 times the ULN. Among these patients, 1.2% (2/167) had concurrent ALT or AST elevations >3 times the ULN and total bilirubin ≥2 times the ULN.
Similarly, more subjects in the vorasidenib arm experienced treatment-related TEAEs than the placebo arm (65 [38.9%] vs. 26 [16.0%] subjects, respectively).
Table 4. Overall Summary of Treatment-Emergent Adverse Events from SMQ (Broad Search) of Hepatic Enzymes Elevation Liver-Related Investigations, Signs and Symptoms—Glioma with Vorasidenib 40 mg QD
Most of the TEAEs were managed within the clinical trial protocol, and discontinuations due to elevated liver enzyme effects were rare (5 subjects, 3%). The median time to resolution (TTR) for the most common (occurred in ≥2 subjects) Grade ≥3 TEAEs in subjects in the vorasidenib arm are as follows:
The exposure-efficacy analysis used the area under the curve (AUCeot) at steady state based on the actual average dose across the treatment duration until EOT.
For the 14 subjects with dose reductions due to hepatotoxicity AE, a swimming plot showing time on study by individual subject is provided in the Figure. The plot includes details regarding timing and duration of TEAEs leading to dose reduction, timing and duration of reduced dose, as well as disease response by Blinded Independent Central Review (BIRC) at each assessment timepoint.

glioma = assay: Study AG881-C-004 (INDIGO): clinical response per BIRC and exposure-efficacy analysis; assay type: in vivo, human
Description: Exposure-efficacy analyses included clinical response to treatment, i.e., PFS, TTNI, OR (CR+PR+mR), CR+PR, all defined per blind independent review committee (BIRC). […] The exposure metrics were pop PK model predicted individual exposures by using post-hoc individual PK parameters and were based on the actual average dose across the treatment duration. The dose of vorasidenib used in the simulations is corrected for dose-reductions and interruptions occurring during the treatment in real life. […] The exposure-efficacy analysis used the area under the curve (AUCeot) at steady state based on the actual average dose across the treatment duration until EOT. […] For the 14 subjects with dose reductions due to hepatotoxicity AE, a swimming plot showing time on study by individual subject is provided in the Figure. The plot includes details regarding timing and duration of TEAEs leading to dose reduction, timing and duration of reduced dose, as well as disease response by Blinded Independent Central Review (BIRC) at each assessment timepoint.

[4] = Vorasidenib plasma pharmacokinetics across doses (steady-state exposure, dose proportionality); assay type: in vivo, human
Description: At the therapeutic dose of 40 mg QD (Formulation 2), the PopPK model predicted geometric mean AUC,ss and Cmax,ss were 3 times lower than corresponding exposure metrics at 300 mg QD (Formulation 1).

[5] = Group A normal hepatic function, 20 mg single dose
[6] = Group B moderate hepatic impairment, 20 mg single dose
[7] = human, plasma, 20 mg, Group A normal hepatic function, 20 mg single dose
[8] = human, plasma, 20 mg, Group B moderate hepatic impairment, 20 mg single dose
[9] = 4 subjects further reduced from 20 mg QD to 10 mg QD
[10] = 10 subjects reduced from 40 mg QD to 20 mg QD only
[11] = 167 subjects with glioma, only PR
[12] = 167 subjects with glioma, only PR and MR

C[C@@H](Nc1nc(N[C@H](C)C(F)(F)F)nc(-c2cccc(Cl)n2)n1)C(F)(F)F [vorasidenib, 6-(6-chloropyridin-2-yl)-N^2,N^4-bis((R)-1,1,1-trifluoropropan-2-yl)-1,3,5-triazine-2,4-diamine]
AUC0-t and Cmax, normal hepatic function vs moderate hepatic impairment ([1]; 20 mg single dose): similar
unbound AUC0-t higher in moderate hepatic impairment compared to normal hepatic function ([1]; 20 mg single dose): 23%
unbound plasma protein fraction, both groups compared ([1]; 20 mg single dose): similar
Tmax [1, 5]: 3.000 (0.500, 4.00) (10) h
Cmax, u [1, 5]: 0.8135 (41.7) (10) ng/mL
Tmax [1, 6]: 2.000 (1.00, 3.00) (9) h
Cmax, u [1, 6]: 1.104 (54.2) (9) ng/mL
half-life [1, 7]: 443 ± 349 h
fraction unbound [1, 7]: 0.0223 ± 0.00245
AUC(0-t) ([1]; human, plasma, 20 mg, Group A normal hepatic function, 20 mg single dose, geometric mean (geometric CV %), read-out: AUC0-t): 1440 ng·h/mL
Cmax ([1]; human, plasma, 20 mg, Group A normal hepatic function, 20 mg single dose, geometric mean (geometric CV %), read-out: Cmax): 36.5 ng/mL
Tmax ([1]; human, plasma, 20 mg, Group A normal hepatic function, 20 mg single dose, read-out: Tmax): ~3 h
AUC(0-t) ([1]; human, plasma, 20 mg, Group A normal hepatic function, total plasma, 20 mg, read-out: AUC0-t, Geometric Mean (linear mixed effects model)): 1390 ng·h/mL
Cmax ([1]; human, plasma, 20 mg, Group A normal hepatic function, total plasma, 20 mg, read-out: Cmax, Geometric Mean (linear mixed effects model)): 38.2 ng/mL
half-life [1, 8]: 360 ± 189 h
fraction unbound [1, 8]: 0.0289 ± 0.00354
AUC(0-t) ([1]; human, plasma, 20 mg, Group B moderate hepatic impairment, 20 mg single dose, geometric mean (geometric CV %), read-out: AUC0-t): 1680 ng·h/mL
Cmax ([1]; human, plasma, 20 mg, Group B moderate hepatic impairment, 20 mg single dose, geometric mean (geometric CV %), read-out: Cmax): 38.5 ng/mL
Tmax ([1]; human, plasma, 20 mg, Group B moderate hepatic impairment, 20 mg single dose, read-out: Tmax): ~2 h
AUC(0-t) ([1]; human, plasma, 20 mg, Group B moderate hepatic impairment, total plasma, 20 mg, read-out: AUC0-t, Geometric Mean (linear mixed effects model)): 1750 ng·h/mL
Cmax ([1]; human, plasma, 20 mg, Group B moderate hepatic impairment, total plasma, 20 mg, read-out: Cmax, Geometric Mean (linear mixed effects model)): 38.5 ng/mL
tolerability of single-dose administration ([1]; in vivo): tolerable
AUC0-t, Ratio (%) of Geometric Means (Test/Reference) ([1]; 20 mg): 126%
Cmax, Ratio (%) of Geometric Means (Test/Reference) ([1]; 20 mg): 101%
AUC0-t, Ratio (%) of Geometric Means (Test/Reference) ([1]; 20 mg, listed as Vorasidenib): 125.97%
Cmax, Ratio (%) of Geometric Means (Test/Reference) ([1]; 20 mg, listed as Vorasidenib): 100.66%
effect of moderate hepatic impairment (Child-Pugh) on total or free (unbound) exposure ([1]; single oral dose of 20 mg): did not lead to clinically relevant changes
Fecal excretion, total radioactivity recovery in feces [2]: 84.7%
TEAEs leading to death, number of subjects ([3]; post-crossover, N = 52): 0 subjects
Treatment-related TEAEs leading to death, number of subjects ([3]; post-crossover, N = 52): 0 subjects
TEAEs leading to death, number of subjects ([3]; without crossover, N = 167): 0 subjects
Treatment-related TEAEs leading to death, number of subjects ([3]; without crossover, N = 167): 0 subjects
TEAEs (overall) leading to dose reduction, % of subjects ([3]; human, in vivo): 10.8%
TEAEs (overall) leading to dose reduction, number of subjects ([3]; human, in vivo): 18 subjects
alanine aminotransferase increased leading to dose reduction, % of subjects ([3]; human, in vivo): 7.8%
alanine aminotransferase increased leading to dose reduction, number of subjects ([3]; human, in vivo): 13 subjects
alanine aminotransferase increased: % with TTR in >60 days ([3]; human, in vivo): 41.9%
alanine aminotransferase increased: % with TTR in ≤15 days ([3]; human, in vivo): 9.3%
alanine aminotransferase increased: number of subjects with TTR in >60 days ([3]; human, in vivo): 36 subjects
alanine aminotransferase increased: number of subjects with TTR in ≤15 days ([3]; human, in vivo): 8 subjects
aspartate aminotransferase increased: % with TTR in >60 days ([3]; human, in vivo): 21.4%
aspartate aminotransferase increased: % with TTR in ≤15 days ([3]; human, in vivo): 28.6%
aspartate aminotransferase increased: number of subjects with TTR in >60 days ([3]; human, in vivo): 15 subjects
aspartate aminotransferase increased: number of subjects with TTR in ≤15 days ([3]; human, in vivo): 20 subjects
effect of exposure (AUCavg and Cmax,avg) on ALT, AST, and bilirubin (all grade and Grade ≥2) ([3]; human, in vivo): no statistically significant effect
median TTR for aspartate aminotransferase increased (any grade) ([3]; human, in vivo): 29.0 days
median time to resolution (TTR) for alanine aminotransferase increased (any grade) ([3]; human, in vivo): 56.0 days
patients with ALT elevations ≥3 times the ULN ([3]; human, in vivo): 18.6%
patients with ALT elevations ≥3 times the ULN (number/total) ([3]; human, in vivo): 31/167
patients with AST elevations >3 times the ULN ([3]; human, in vivo): 8.4%
patients with AST elevations >3 times the ULN (number/total) ([3]; human, in vivo): 14/167
patients with concurrent ALT or AST elevations >3 times the ULN and total bilirubin ≥2 times the ULN ([3]; human, in vivo): 1.2%
patients with concurrent ALT or AST elevations >3 times the ULN and total bilirubin ≥2 times the ULN (number/total) ([3]; human, in vivo): 2/167
subjects requiring a dose reduction from 40 mg QD to 20 mg QD only ([3]; human, in vivo): 10 subjects
subjects requiring a second dose reduction from 20 mg QD to 10 mg QD ([3]; human, in vivo): 4 subjects
subjects with at least 1 dose reduction based on the exposure data (any reason), % ([3]; human, in vivo): 16.2%
subjects with at least 1 dose reduction based on the exposure data (any reason), number ([3]; human, in vivo): 27 subjects
course of liver enzyme and bilirubin increases ([3]; in vivo): transient and improved or resolved
subjects with best response of SD while receiving 10 mg QD (glioma; [9]): Three
subjects with response of PD while receiving 10 mg QD (glioma; [9]): 1 subject
subjects with best response of MR by BIRC while receiving 20 mg QD (glioma; [10]): 1 subject
subjects with best response of PD by BIRC while receiving 20 mg QD (glioma; [10]): one
subjects with best response of SD by BIRC while receiving 20 mg QD (glioma; [10]): 8 subjects
subjects with intervention (TTNI), % (glioma; 167 subjects with glioma): 11.4%
subjects with intervention (TTNI), number (glioma; 167 subjects with glioma): 19 subjects
subjects with progression (PFS) per BIRC, % (glioma; 167 subjects with glioma): 28.1%
subjects with progression (PFS) per BIRC, number (glioma; 167 subjects with glioma): 47 subjects
subjects with CR+PR per BIRC, % (glioma; [11]): 1.2%
subjects with CR+PR per BIRC, number (glioma; [11]): 2 subjects
subjects with OR (CR+PR+mR) per BIRC, % (glioma; [12]): 10.8%
subjects with OR (CR+PR+mR) per BIRC, number (glioma; [12]): 18 subjects
effect of exposure on efficacy responses (PFS, TTNI, OR and CR+PR) (glioma; studied exposure range, Study AG881-C-004): did not affect efficacy responses
dose proportionality of PK ([4]; from 10 to 200 mg): dose proportional
time dependence of PK ([4]; in vivo): not time-dependent
